From patent publication US20110151020A1, “ACTIVE SUBSTANCE COMBINATION WITH GEMCITABINE FOR THE TREATMENT OF EPITHELIAL CANCER” (priority 2008, published 2011)

How the values were obtained:
[1] = system: pancreatic CSC spheres; experiment: CSC-enriched tumour sphere assay; type: cell-based, human; conditions: ultra low adhesion 6-well plates
Protocol: (§1) First, pancreatic CSC were clonally expanded as CSC-enriched spheres (FIGS. 18C1-18C5). Floating spheres were treated in ultra low adhesion 6-well plates. After completion of the treatment, five randomly selected high-power fields were analyzed.
(§2) Human pancreatic cancer cell line. The highly metastatic human pancreatic cell line L3.6pl was maintained in DMEM medium (Invitrogen, Karlsruhe, Germany) with 12% Fetal Calf Serum (Biochrom, Berlin, Germany), Glutamax (Invitrogen), non-essential amino acids, and vitamins (all from PAN, Aidenbach, Germany) (Hermann et al., 2007, supra). Cultures were kept no longer than 4 weeks after recovery from frozen stocks. CSC spheres were cultured in DMEM-F12 supplemented with B27 (Gibco, Karlsruhe, Germany) and FGF-2 (PeproTech EC, London, United Kingdom) (Hermann et al., 2007, supra).

[2] = system: primary human pancreatic cancer tissue; experiment: In vivo triple combination treatment of implanted patient pancreatic tumor tissue; set-up: species or system mice; conditions: treatment from day 21; assessed up to 100 days
Protocol: Tumor tissue from patient with pancreatic cancer was implanted into immunocompromised mice. Treatment was started on day 21 after implantation. Mice were randomized to gemcitabine alone or combination therapy. Tumor growth was assessed up to 100 days.

[3] = system: primary human pancreatic cancer tissue; experiment: In vivo treatment of implanted patient pancreatic tumor tissue with gemcitabine plus SB431542; set-up: species or system mice; conditions: treatment from day 7, assessed day 28
Protocol: FIG. 33: In vivo treatment with the Alk4/7 inhibitor SB431542. This illustrates Nodal/Activin inhibition to eliminate primary human pancreatic CSC in vivo. Tumor tissue from patient with pancreatic cancer was implanted into immunocompromised mice. Treatment was started on day 7 after implantation. Mice were randomized to gemcitabine alone or gemcitabine plus SB431542. Tumor growth was assessed on day 28.

[4] = system: orthotopically implanted tumour cells; experiment: In vivo treatment of orthotopic tumours with Gemcitabine and SB431542; set-up: species or system mice
Protocol: Seven days after orthotopic implantation of tumour cells, therapy with either Gemcitabine alone or in combination with targeted Nodal/Activin inhibition by SB431542 was initiated. The double combination therapy was stopped after 14 days of treatment, the single Gemcitabine treatment was continued until sacrifice of the animals. 35 days after tumour cell treatment, PET scans were done and evaluation of tumour volume was performed on day 42.

[5] = system: side population (SP) cells; experiment: Side population (Hoechst 33342 exclusion); type: cell-based, human
Protocol: as §1

[6] = system: CD133+ pancreatic cancer stem cells (L3.6pl cells); experiment: CD133 content by flow cytometry in L3.6pl pancreatic cancer cells; type: cell-based, human; conditions: 48 hours of therapy; Gemcitabine 100 ng/ml
Protocol: In this experiment, potentially effective substances for the targeted elimination of CD133^+ pancreatic cancer stem cells (CSC) were screened by means of flow cytometry following 48 hours of therapy. […] As a Gemcitabine concentration of 100 ng/ml was the lowest concentration capable of achieving a strong relative enrichment for CD133^+ cells through depletion of CD133^− cells, this concentration was chosen for subsequent experiments.
as §2
Cytometry. Pancreatic CSC were identified by CD133/1-APC or CD133-PE (Miltenyi, Bergisch-Gladbach, Germany) (Hermann et al., 2007, supra). Side population experiments were performed as described by Goodell et al. (1996) (see Goodell et al., 1996, J Exp Med 183, 1797-1806) and cells were identified by exclusion of the vital dye Hoechst 33342. To detect activation of the PI3K/Akt/mTOR pathway by means of the phosphorylation status of the s6 ribosomal protein (s6rp), cells cultivated with standard medium were stained with a rabbit anti-phospho-S6 ribosomal protein antibody (Cell Signalling Technology, Danvers, Mass.).
In vitro treatment of pancreatic cancer cells. […] For the evaluation of the in vivo tumorigenicity, […] L3.6pl cells were pretreated with the respective regimen and the remaining viable cells were orthotopically implanted into the pancreas of nude mice and evaluated on day 35. For the systemic infusion assay, cells were labelled with the Qtracker 800 labelling kit (Invitrogen) according to the manufacturer's instructions, and 5×10^5 cells were injected intravenously into mice. After 4 weeks, explanted lungs were scanned for metastases with a near-infrared imaging platform (Odyssey, Li-cor, Lincoln, Nebr.). Positive signals were verified by histology (H&E staining).
Using SB431542, a specific inhibitor of the receptors for Nodal and Activin, ALK-4 and -7 respectively, it was investigated whether the content of the CD133(+) population is affected by inhibition of Activin/Nodal signaling. As mutations affecting the TGF-superfamily pathway are very common in pancreatic neoplasms, pancreatic cell lines harboring different mutations in this pathway were screened (Table 1).

Structure (SMILES): Nc1ccn(C2OC(CO)C(O)C2(F)F)c(=O)n1 (stereo not shown) [Gemcitabine, 4-amino-1-[3,3-difluoro-4-hydroxy-5-(hydroxymethyl)tetrahydrofuran-2-yl]-1H-pyrimidin-2-one]
- tumour spheres / CD133+ cells in CSC-enriched spheres [1]: marked relative increase of CD133^+ cells
- tumor growth [2]: virtually unrestricted growth
- tumor response / regression [3]: strong response
- tumour size ([4]; mouse, in vivo): reduction of tumour size
- tumour formation / tumour incidence ([4]; therapy from day 7, combination 14 days, PET day 35, volume day 42): unaffected
- side population (SP) cells [5]: unaffected
- CD133+ cell content [6]: marked enrichment
